Source: patent publication US20080113956A1, “Substituted Porphyrins” (priority 1997, published 2008)

System: isolated, perfused mouse liver
Assay: Isolated, perfused mouse liver, global ischemia/reperfusion injury
Conditions: 10 μm in perfusate
Protocol: The ability of Mn TE-2-PyP to attenuate injury associated with 60 minutes of global ischemia followed by 90 minutes of reperfusion was assessed in an isolated, perfused mouse liver model. Excised livers were perfused with a buffered salt solution for 15 minutes after which the metalloporphyrin was introduced into the perfusate and the liver perfused in a recirculating system for an additional 15 minutes. The livers were then rendered globally ischemic under normal thermic conditions for 60 minutes. Following the ischemic period the livers were perfused for 90 minutes with perfusate supplemented with 10 μm Mn TE-2-PyP. In this model the ischemia/reperfused livers have a marked release of hepatocellular enzymes, aspartate transaminase, alanine transaminase, and lactate dehydrogenase during the first 2½ minutes of reperfusion. This is followed by a progressive release of hepatocellular enzymes indicating hepatocellular injury over the 90 minute perfusion period. […] At the end of the experiments liver […]. […] They remain firm and with a normal texture to gross morphologic examination.

## CC[n+]1ccccc1-c1c2nc(c(-c3cccc[n+]3CC)c3ccc([n-]3)c(-c3cccc[n+]3CC)c3nc(c(-c4cccc[n+]4CC)c4ccc1[n-]4)C=C3)C=C2.[Mn+3] [MnTE-2-PyP^5+, manganic meso-tetrakis-(N-ethylpyridinium-2-yl)porphyrin]
60 minutes global ischemia, 90 minutes reperfusion
  attenuation of liver injury: highly efficacious in attenuating the liver injury
First 2½ minutes of reperfusion
  acute hepatocellular enzyme release: blocking virtually all
Over the 90 minute perfusion period
  progressive hepatocellular enzyme release: blocking progressive hepatocellular enzyme release
